Assay results as given in ChEMBL document CHEMBL1124314, “Development of phosphonate derivatives of gadolinium chelates for NMR imaging of calcified soft tissues” (J Med Chem, 1989).

Tests used:
Rattus norvegicus [1] = species on record: Rattus norvegicus; experiment: Biodistribution in rat bone in the presence of 0.10 M GdDTPA-BDP; type: ADME, organism-based, Bone element; conditions: in vivo
Rattus norvegicus [2] = species on record: Rattus norvegicus; experiment: Biodistribution in rat bone in the presence of 0.10 M/0.11 M GdDTPA-AEP; type: ADME, organism-based, Bone element; conditions: in vivo
Rattus norvegicus [3] = species on record: Rattus norvegicus; experiment: Biodistribution in rat bone in the presence of GdDTPA at 4 hr; type: ADME, organism-based, Bone element; conditions: in vivo
Rattus norvegicus [4] = species on record: Rattus norvegicus; experiment: Biodistribution in rat bone in the presence of GdDTPA-BDP at 1 hr; type: ADME, organism-based, Bone element; conditions: in vivo
Rattus norvegicus [5] = species on record: Rattus norvegicus; experiment: Biodistribution in rat bone in the presence of GdDTPA-HPDP at 1 hr; type: ADME, organism-based, Bone element; conditions: in vivo
Rattus norvegicus [6] = species on record: Rattus norvegicus; experiment: Biodistribution in rat bone in the presence of NAC Gd/0.01 M GdDTPA-HPDP; type: ADME, organism-based, Bone element; conditions: in vivo
Rattus norvegicus [7] = species on record: Rattus norvegicus; experiment: Biodistribution in rat heart in the presence of 0.01 M Gd/0.01 M GdDTPA-AEP; type: ADME, organism-based; conditions: in vivo
Rattus norvegicus [8] = species on record: Rattus norvegicus; experiment: Biodistribution in rat heart in the presence of GdDTPA at 1 hr; type: ADME, organism-based; conditions: in vivo
Rattus norvegicus [9] = species on record: Rattus norvegicus; experiment: Biodistribution in rat heart in the presence of GdDTPA-BDP at 30 min; type: ADME, organism-based; conditions: in vivo, 0.5 h
Rattus norvegicus [10] = species on record: Rattus norvegicus; experiment: Biodistribution in rat heart in the presence of GdDTPA-HPDP at 30 min; type: ADME, organism-based; conditions: in vivo, 0.5 h
Rattus norvegicus [11] = species on record: Rattus norvegicus; experiment: Biodistribution in rat heart in the presence of GdDTPA-HPDP at 4 hr; type: ADME, organism-based; conditions: in vivo
Rattus norvegicus [12] = species on record: Rattus norvegicus; experiment: Biodistribution in rat heart in the presence of NAC Gd/0.01 M GdDTPA-HPDP; type: ADME, organism-based; conditions: in vivo
Rattus norvegicus [13] = species on record: Rattus norvegicus; experiment: Biodistribution in rat kidney in the presence of 0.01 M GdDTPA-BDP; type: ADME, organism-based; conditions: in vivo
Rattus norvegicus [14] = species on record: Rattus norvegicus; experiment: Biodistribution in rat kidney in the presence of 0.05 M/0.05 M GdDTPA-AEP; type: ADME, organism-based; conditions: in vivo
Rattus norvegicus [15] = species on record: Rattus norvegicus; experiment: Biodistribution in rat kidney in the presence of 0.10 M GdDTPA-BDP; type: ADME, organism-based; conditions: in vivo
Rattus norvegicus [16] = species on record: Rattus norvegicus; experiment: Biodistribution in rat kidney in the presence of NAC Gd/0.01 M GdDTPA-HPDP; type: ADME, organism-based; conditions: in vivo
Rattus norvegicus [17] = species on record: Rattus norvegicus; experiment: Biodistribution in rat liver in the presence of GdDTPA-HPDP at 15 min; type: ADME, organism-based; conditions: in vivo, 0.25 h
Rattus norvegicus [18] = species on record: Rattus norvegicus; experiment: Biodistribution in rat liver in the presence of GdDTPA-HPDP at 4 hr; type: ADME, organism-based; conditions: in vivo
Rattus norvegicus [19] = species on record: Rattus norvegicus; experiment: Biodistribution in rat muscle in the presence of 0.10 M GdDTPA-BDP; type: ADME, organism-based, Muscle tissue; conditions: in vivo
Rattus norvegicus [20] = species on record: Rattus norvegicus; experiment: Biodistribution in rat muscle in the presence of GdDTPA-BDP at 1 hr; type: ADME, organism-based, Muscle tissue; conditions: in vivo
Rattus norvegicus [21] = species on record: Rattus norvegicus; experiment: Biodistribution in rat muscle in the presence of GdDTPA-BDP at 4 hr; type: ADME, organism-based, Muscle tissue; conditions: in vivo
Rattus norvegicus [22] = species on record: Rattus norvegicus; experiment: Biodistribution in rat muscle in the presence of GdDTPA-BDPat 30 min; type: ADME, organism-based, Muscle tissue; conditions: in vivo, 0.5 h
Rattus norvegicus [23] = species on record: Rattus norvegicus; experiment: Biodistribution in rat muscle in the presence of GdDTPA-HPDP at 4 hr; type: ADME, organism-based, Muscle tissue; conditions: in vivo
Rattus norvegicus [24] = species on record: Rattus norvegicus; experiment: Biodistribution in rat spleen in the presence of 0.01 M GdDTPA-BDP; type: ADME, organism-based; conditions: in vivo
Rattus norvegicus [25] = species on record: Rattus norvegicus; experiment: Biodistribution in rat spleen in the presence of 0.10 M GdDTPA-BDP; type: ADME, organism-based; conditions: in vivo
Rattus norvegicus [26] = species on record: Rattus norvegicus; experiment: Biodistribution in rat liver in the presence of 0.001 M/0.008 M GdDTPA-AEP; type: ADME, organism-based; conditions: in vivo
Rattus norvegicus [27] = species on record: Rattus norvegicus; experiment: Biodistribution in rat liver in the presence of 0.01 M/0.01 M GdDTPA-AEP; type: ADME, organism-based; conditions: in vivo
Rattus norvegicus [28] = species on record: Rattus norvegicus; experiment: Biodistribution in rat liver in the presence of 0.05 M/0.05 M GdDTPA-AEP; type: ADME, organism-based; conditions: in vivo

## O=C(O)CN(CCN(CC(=O)O)CC(=O)O)CCN(CC(=O)O)CC(=O)O [PENTETIC ACID]
Rattus norvegicus [1]
  ID/organ: 13.3%
Rattus norvegicus [2]
  ID/organ: 16.4%
Rattus norvegicus [3]
  ID/organ: 0.287%
Rattus norvegicus [4]
  ID/organ: 17.6%
Rattus norvegicus [5]
  ID/organ: 20%
Rattus norvegicus [6]
  ID/organ: 65.7%
Rattus norvegicus [7]
  ID/organ: 0.012%
Rattus norvegicus [8]
  ID/organ: 0.019%
Rattus norvegicus [9]
  ID/organ: 17.6%
Rattus norvegicus [10]
  ID/organ: 0.04%
Rattus norvegicus [11]
  ID/organ: 0.003%
Rattus norvegicus [12]
  ID/organ: 0.032%
Rattus norvegicus [13]
  ID/organ: 0.476%
Rattus norvegicus [14]
  ID/organ: 0.264%
Rattus norvegicus [15]
  ID/organ: 0.29%
Rattus norvegicus [16]
  ID/organ: 0.273%
Rattus norvegicus [17]
  ID/organ: 0.745%
Rattus norvegicus [18]
  ID/organ: 0.202%
Rattus norvegicus [19]
  ID/organ: 3.59%
Rattus norvegicus [20]
  ID/organ: 4.47%
Rattus norvegicus [21]
  ID/organ: 4.5%
Rattus norvegicus [22]
  ID/organ: 5.17%
Rattus norvegicus [23]
  ID/organ: 0.223%
Rattus norvegicus [24]
  ID/organ: 0.185%
Rattus norvegicus [25]
  ID/organ: 0.013%
Rattus norvegicus [26]
  ID/organ: 0.239%
Rattus norvegicus [27]
  ID/organ: 18.3%
Rattus norvegicus [28]
  ID/organ: 14.8%
